Test results: ChEMBL document CHEMBL3727356, “Therapeutic compounds and compositions” (2014)

What was measured:
Pyruvate kinase PKLR [1] = biological target: Pyruvate kinase PKLR (Homo sapiens, UniProt P30613, R532W); experiment: Activation of PKR R532W mutant (unknown origin) incubated for 60 mins in presence of ADP, PEP and NADH by Spectraax microplate reader based assay
Pyruvate kinase PKLR [2] = biological target: Pyruvate kinase PKLR (Homo sapiens, UniProt P30613, R510Q); experiment: Activation of PKR R510Q mutant (unknown origin) incubated for 60 mins in presence of ADP, PEP and NADH by Spectraax microplate reader based assay
Sequence of Pyruvate kinase PKLR (Homo sapiens, UniProt P30613, R510Q) (P30613 whole entry R510Q): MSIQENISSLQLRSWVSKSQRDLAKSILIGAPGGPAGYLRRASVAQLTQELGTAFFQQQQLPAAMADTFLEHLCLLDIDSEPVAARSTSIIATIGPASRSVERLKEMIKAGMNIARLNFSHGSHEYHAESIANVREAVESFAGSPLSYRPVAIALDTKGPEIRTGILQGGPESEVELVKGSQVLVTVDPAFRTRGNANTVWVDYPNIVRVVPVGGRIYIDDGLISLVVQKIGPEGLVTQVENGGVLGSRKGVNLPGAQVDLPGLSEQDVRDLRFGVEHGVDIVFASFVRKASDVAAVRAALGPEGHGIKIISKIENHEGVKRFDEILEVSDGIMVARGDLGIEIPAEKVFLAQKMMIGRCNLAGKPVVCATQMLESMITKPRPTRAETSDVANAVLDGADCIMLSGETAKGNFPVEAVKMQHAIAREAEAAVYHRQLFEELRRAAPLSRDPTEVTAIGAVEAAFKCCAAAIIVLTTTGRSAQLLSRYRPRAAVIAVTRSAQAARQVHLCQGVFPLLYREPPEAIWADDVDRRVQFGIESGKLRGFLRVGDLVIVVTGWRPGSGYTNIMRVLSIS

Pyruvate kinase PKLR [3] = biological target: T1, Pyruvate kinase PKLR (Homo sapiens, UniProt P30613); experiment: Activation of wild type PKR (unknown origin) incubated for 60 mins in presence of ADP, PEP and NADH by Spectraax microplate reader based assay
T1 sequence (P30613 whole entry): as the sequence (P30613 whole entry R510Q) above, with Q510R counted along it

Pyruvate kinase PKLR [4] = biological target: T1, Pyruvate kinase PKLR; experiment: Activation of wild type PKR (unknown origin) by cell based assay

Sequence of Pyruvate kinase PKLR (Homo sapiens, UniProt P30613, R532W) (P30613 whole entry R532W): as the sequence (P30613 whole entry R510Q) above, with Q510R, R532W counted along it

| Compound | AC50 (Pyruvate kinase PKLR [1]) [nM] | AC50 (Pyruvate kinase PKLR [2]) [nM] | AC50 (Pyruvate kinase PKLR [3]) [nM] | AC50 (Pyruvate kinase PKLR [4]) [nM] |
| --- | --- | --- | --- | --- |
| O=C(c1ccc(NS(=O)(=O)c2cccc3cccnc23)cc1)N1CCC(O)(c2cnsc2)CC1 | < 100 | – | < 100 | < 100 |
| CC(C)CC1(O)CCN(C(=O)c2ccc(NS(=O)(=O)c3cnc(O)c4cccnc34)cc2)CC1 | > 10000 | > 10000 | – | – |
| O=C1NCCC1CC1(O)CCN(C(=O)c2ccc(NS(=O)(=O)c3cccc4scnc34)cc2)CC1 (centres undefined) | – | > 10000 | – | – |
| O=C(c1ccc(NS(=O)(=O)c2cccc3scnc23)cc1)N1CCC(O)(c2ncc(Cl)s2)CC1 | – | > 10000 | – | – |
| O=C(c1ccc(NS(=O)(=O)c2cccc3cccnc23)c(Cl)c1)N1CCC(O)(c2ccccc2Cl)CC1 | < 100 | – | < 100 | < 100 |
| O=C(c1ccc(NS(=O)(=O)c2cccc3nccnc23)cc1)N1CCC(O)(CCC(F)=C(F)F)CC1 | < 100 | – | < 100 | < 100 |
| O=C(c1ccc(NS(=O)(=O)c2cccc3c(O)ncnc23)cc1)N1CCC(O)(/C=C/CC(F)(F)F)CC1 | – | < 100 | < 100 | – |
| O=C(c1ccc(NS(=O)(=O)c2cccc3cccnc23)cc1)N1CCC(O)(c2ncccc2Cl)CC1 | < 100 | – | < 100 | < 100 |
| O=C(c1ccc(NS(=O)(=O)c2cccc3scnc23)cc1)N1CCC(O)(CCC=C(F)F)CC1 | < 100 | – | < 100 | < 100 |
| CC(C)CC1(O)CCN(C(=O)c2ccc(NS(=O)(=O)c3ccc(F)c4cccnc34)cc2)CC1 | < 100 | – | < 100 | < 100 |
| CS(=O)(=O)c1ccccc1C1(O)CCN(C(=O)c2ccc(NS(=O)(=O)c3cccc4cccnc34)cc2)CC1 | < 100 | – | < 100 | < 100 |
| CCCC1(O)CCN(C(=O)c2ccc(NS(=O)(=O)c3cccc4cccnc34)cc2)CC1 | < 100 | – | < 100 | < 100 |
| O=C(c1ccc(NS(=O)(=O)c2cccc3cccnc23)cc1F)N1CCC(O)(c2ccccc2Cl)CC1 | < 100 | – | < 100 | < 100 |
| O=C(c1ccc(NS(=O)(=O)c2ccccc2Cl)cc1)N1CCC(O)(Cc2ccccc2)CC1 | ≤ 1000 | ≤ 1000 | ≤ 1000 | – |
| CC(C)CC1(OP(=O)(O)O)CCN(C(=O)c2ccc(NS(=O)(=O)c3cccc4nccnc34)cc2)CC1 | – | > 10000 | – | – |
| CCn1cc(CC2(O)CCN(C(=O)c3ccc(NS(=O)(=O)c4cccc5scnc45)cc3)CC2)cn1 | – | > 10000 | – | – |
| Cc1nc2c(S(=O)(=O)Nc3ccc(C(=O)N4CCC(O)(c5ccccc5Cl)CC4)cc3)cccc2o1 | < 100 | – | < 100 | < 100 |
| O=C(c1ccc(NS(=O)(=O)c2cccc3c2OC(F)(F)O3)cc1)N1CCC(O)(c2ccccc2Cl)CC1 | – | > 10000 | – | – |
| Cc1noc(C)c1CC1(O)CCN(C(=O)c2ccc(NS(=O)(=O)c3cccc4nccnc34)cc2)CC1 | < 100 | – | < 100 | < 100 |
| O=C(c1ccc(NS(=O)(=O)c2cccc(OC(F)(F)F)c2)cc1)N1CCC(O)(Cc2ccccc2)CC1 | – | > 10000 | – | – |
| CC(C)CC1(O)CCN(C(=O)c2ccc(NS(=O)(=O)c3ccnc4scnc34)cc2)CC1 | > 10000 | > 10000 | – | – |
| Cn1ccc(CC2(O)CCN(C(=O)c3ccc(NS(=O)(=O)c4cccc5nccnc45)cc3)CC2)n1 | – | > 10000 | – | – |
| O=C(c1ccc(NS(=O)(=O)c2cccc3snnc23)cc1)N1CCC(O)(c2ccccc2Cl)CC1 | – | > 10000 | – | – |

| Compound | AC50 (Pyruvate kinase PKLR [1]) [nM] | AC50 (Pyruvate kinase PKLR [2]) [nM] | AC50 (Pyruvate kinase PKLR [3]) [nM] | AC50 (Pyruvate kinase PKLR [4]) [nM] |
| --- | --- | --- | --- | --- |
| COc1nc(C(=O)N2CCC(O)(c3ccccc3)CC2)ccc1NS(=O)(=O)c1cccc2cccnc12 | – | > 10000 | – | – |
| O=C(c1ccc(NS(=O)(=O)c2cccc3ccnnc23)cc1)N1CCC(O)(c2ccccc2Cl)CC1 | > 10000 | > 10000 | – | – |
| CC1(O)CCN(C(=O)c2ccc(NS(=O)(=O)c3cccc4cccnc34)cc2)CC1 | – | > 10000 | – | – |
| O=C(c1ccc(NS(=O)(=O)c2cccc3cccnc23)c(F)c1F)N1CCC(O)(c2ccccc2)CC1 | – | > 10000 | – | – |
| CS(=O)(=O)CCC1(O)CCN(C(=O)c2ccc(NS(=O)(=O)c3cccc4scnc34)cc2)CC1 | > 10000 | > 10000 | – | – |
| CS(=O)(=O)CCC1(O)CCN(C(=O)c2ccc(NS(=O)(=O)c3cccc4nccnc34)cc2)CC1 | – | > 10000 | – | – |
| O=C1NCCC1CC1(O)CCN(C(=O)c2ccc(NS(=O)(=O)c3cccc4nccnc34)cc2)CC1 (centres undefined) | – | > 10000 | – | – |
| N#Cc1cc(NS(=O)(=O)c2cccc3cccnc23)ccc1C(=O)N1CCC(O)(c2ccccc2Cl)CC1 | < 100 | – | < 100 | < 100 |
| CC1(CC2(O)CCN(C(=O)c3ccc(NS(=O)(=O)c4cccc5scnc45)cc3)CC2)CC1 | < 100 | < 100 | < 100 | – |
| O=C(c1ccc(NS(=O)(=O)c2cccc3scnc23)cc1)N1CCC(O)(c2cn[nH]c2)CC1 | – | > 10000 | – | – |
| COc1cc(NS(=O)(=O)c2cccc3cccnc23)ccc1C(=O)N1CCC(O)(Cc2ccccc2)CC1 | < 100 | < 100 | < 100 | – |
| O=C(c1ccc(NS(=O)(=O)c2cccc3nsnc23)cc1)N1CCC(O)(c2ccccc2)CC1 | – | > 10000 | – | – |
| CCS(=O)(=O)CC1(O)CCN(C(=O)c2ccc(NS(=O)(=O)c3cccc4scnc34)cc2)CC1 | – | > 10000 | – | – |
| O=C(c1ccc(NS(=O)(=O)c2cccc3scnc23)cc1)N1CCC(O)(c2sncc2Cl)CC1 | < 100 | – | < 100 | < 100 |
| O=C(c1ccc(NS(=O)(=O)c2cccc3cccnc23)cc1)N1CCC(O)(c2ccncc2)CC1 | < 100 | – | < 100 | < 100 |
| O=C(c1ccc(N[S+]([O-])c2cccc3cccnc23)cc1)N1CCC(O)(c2ccccc2Cl)CC1 (centres undefined) | – | > 10000 | – | – |
| CC(C)CC1(O)CCN(C(=O)c2ccc(NS(=O)(=O)c3cncc4cccnc34)cc2)CC1 | < 100 | – | < 100 | < 100 |
| O=C(c1ccc(NS(=O)(=O)c2cccc3cccnc23)cc1)N1CCC(O)(c2cccc(C(F)(F)F)c2)CC1 | < 100 | – | < 100 | < 100 |
| CC(C)CC1(O)CCN(C(=O)c2ccc(NS(=O)(=O)c3cccc4nccnc34)cc2OC(F)F)CC1 | < 100 | – | < 100 | < 100 |
| O=C(c1ccc(NS(=O)(=O)c2cccc3cccnc23)cc1)N1CCC(O)(CCC(F)F)CC1 | < 100 | – | < 100 | < 100 |
| CC(C)CC1(O)CCN(C(=O)c2ccc(NS(=O)(=O)c3cccn4ccnc34)cc2)CC1 | – | > 10000 | – | – |
| CC(F)(F)CCC1(O)CCN(C(=O)c2ccc(NS(=O)(=O)c3cccc4nc(N)cnc34)cc2)CC1 | < 100 | – | < 100 | < 100 |

Other lines, results leading:

| AC50 (Pyruvate kinase PKLR [1]) [nM] | AC50 (Pyruvate kinase PKLR [2]) [nM] | AC50 (Pyruvate kinase PKLR [3]) [nM] | AC50 (Pyruvate kinase PKLR [4]) [nM] | Compound |
| --- | --- | --- | --- | --- |
| > 10000 | > 10000 | – | – | Nc1nc2cc(S(=O)(=O)Nc3ccc(C(=O)N4CCC(O)(c5ccccc5Cl)CC4)cc3)c(F)cc2s1 |
| – | > 10000 | – | – | O=C(c1ccc(NS(=O)(=O)c2cccc3cccnc23)cn1)N1CCC(O)(c2ccccc2)CC1 |
| < 100 | – | < 100 | < 100 | CC(C)CC1(O)CCN(C(=O)c2ccc(NS(=O)(=O)c3cccc4c3OCO4)cc2)CC1 |
| – | > 10000 | – | – | COc1cccnc1C1(O)CCN(C(=O)c2ccc(NS(=O)(=O)c3cccc4cccnc34)cc2)CC1 |
| < 100 | – | < 100 | < 100 | CC(C)(C)C1(O)CCN(C(=O)c2ccc(NS(=O)(=O)c3cccc4cccnc34)cc2)CC1 |
| < 100 | < 100 | < 100 | – | O=C(c1ccc(NS(=O)(=O)c2cccc3cccnc23)cc1)N1CCC(O)(c2ccccc2OC(F)(F)F)CC1 |
| < 100 | – | < 100 | < 100 | O=C(c1ccc(NS(=O)(=O)c2cccc3cc(F)cnc23)cc1)N1CCC(O)(c2ccccc2)CC1 |
| – | > 10000 | – | – | O=C(c1ccc(NS(=O)(=O)c2cccc3cccnc23)nc1)N1CCC(O)(c2ccccc2)CC1 |
| < 100 | – | < 100 | < 100 | O=C(c1ccc(NS(=O)(=O)c2ccc(F)c3cccnc23)cc1)N1CCC(O)(c2ccccc2Cl)CC1 |
| < 100 | < 100 | < 100 | – | O=C(c1ccc(NS(=O)(=O)c2ccc(F)c3cccnc23)cc1)N1CCC(O)(Cc2ccccc2F)CC1 |
| – | > 10000 | – | – | CCn1cc(CC2(O)CCN(C(=O)c3ccc(NS(=O)(=O)c4cccc5nccnc45)cc3)CC2)cn1 |
| – | > 10000 | – | – | O=C(c1ccc(NS(=O)(=O)c2c(F)ccc3ncsc23)cc1)N1CCC(O)(c2ccccc2Cl)CC1 |
| – | > 10000 | – | – | CC(C)CC1(O)CCN(C(=O)c2ccc(NS(=O)(=O)c3c(F)ccc4ncsc34)cc2)CC1 |
| < 100 | – | < 100 | < 100 | CC(C)C1(O)CCN(C(=O)c2ccc(NS(=O)(=O)c3cccc4cccnc34)cc2)CC1 |
| < 100 | – | < 100 | < 100 | O=C(c1ccc(NS(=O)(=O)c2cccc3cccnc23)cc1)N1CCC(O)(c2ccc(F)cc2)CC1 |
| – | > 10000 | – | – | CN1CCC(CC2(O)CCN(C(=O)c3ccc(NS(=O)(=O)c4cccc5scnc45)cc3)CC2)C1=O (centres undefined) |
| < 100 | – | < 100 | < 100 | O=C(c1ccc(NS(=O)(=O)c2cccc3nccnc23)cc1)N1CCC(O)(CCCC(F)F)CC1 |
| < 100 | – | < 100 | < 100 | O=C(c1ccc(NS(=O)(=O)c2cccc3scnc23)cc1)N1CCC(O)(CCCC(F)(F)F)CC1 |
| – | > 10000 | – | – | O=C(c1ccc(NS(=O)(=O)c2cccc3ncccc23)cc1)N1CCC(O)(c2ccccc2)CC1 |
| < 100 | – | < 100 | < 100 | O=C(c1ccc(NS(=O)(=O)c2cccc3scnc23)cc1)N1CCC(O)(CC2CCC2)CC1 |
| < 100 | – | < 100 | < 100 | Cn1nccc1CC1(O)CCN(C(=O)c2ccc(NS(=O)(=O)c3cccc4nccnc34)cc2)CC1 |
| – | > 10000 | – | – | Nc1nc(CC2(O)CCN(C(=O)c3ccc(NS(=O)(=O)c4cccc5scnc45)cc3)CC2)cs1 |
| < 100 | – | < 100 | < 100 | O=C(c1ccc(NS(=O)(=O)c2cccc3c(O)ncnc23)cc1)N1CCC(O)(c2cccc(F)c2F)CC1 |
